Data reported in patent US20190040025A1, “INDOLEAMINE 2,3-DIOXYGENASE INHIBITOR, PREPARATION METHOD THEREFOR, AND APPLICATION” (Jiangsu Hansoh Pharmaceutical Group Co., Ltd., priority 2016, published 2019).

Columns and labels:
[1] = Pharmacokinetic (PK) analysis of rat plasma; format: in vivo; settings: Sprague-Dawley, po, 20 mg/kg, SD rats, single gavage, 20 mg/10 mL/kg
Experimental: The pharmacokinetics test of the test compound was performed with Sprague Dawley (SD) rats (Shanghai Slac Laboratory Animal Co., LTD).
Mode of administration: Single gavage.
U Dosage: 20 mg/10 mL/kg.
Formulation prescription: 3% dimethylacetamide and 20% hydroxypropyl-3-cyclodextrin.
Sampling points: before administration and 15 minutes, 0.5, 1, 2, 4, 6, 8 and 24 hours after administration.
Plasma sampling and sample processing: • 1) 0.2 ml of intravenous blood was collected and placed in an EDTA-2K tube. The blood was centrifuged at 4° C. for 5 minutes at 6,000 rpm to separate the plasma, which was stored at −80° C. • 2) 160 μL of acetonitrile were added to 40 μL of plasma sample, standard, and internal reference. The mixture was shaken vertically for 3 minutes, and centrifuged at 4000 rpm for 10 minutes. 100 μL of the supernatant were taken, and then added with 100 μL of deionized water and mixed well. 100 μL of the resulting solution was taken for LC/MS/MS analysis. The instrument for plasma LC/MS/MS analysis was AB Sciex API 4000.
Liquid Chromatography Analysis: • Liquid chromatography conditions: Shimadzu LC-20AD pump • Chromatographic column: phenomenex Gemiu 5 μm C18 50×4.6 mm • Mobile phase: solution A was 0.1% formic acid solution, and solution B was acetonitrile • Flow rate: 0.8 mL/min • Elution time: 0-3.01 minutes and the eluent was as follows:
• Mass spectrometry analysis: setup conditions of mass spectrometer: positive ion electrospray ionization (ESI) mode. • Experimental results: the main parameters of pharmacokinetics were calculated by WinNonlin 6.1 and the experimental results are shown in the following table: […]

[2] = test system: mouse rectal cancer cell line Colon26; assay: Anti-tumor effect in Colon26 tumor-bearing mouse model; format: in vivo, mouse (Balb/c); settings: Colon26 tumor-bearing mice
Text: The present invention further used the Colon26 tumor-bearing mouse model to test the anti-tumor effect of the example compounds. The Colon26 tumor-bearing mouse model was the mouse rectal cancer cell line Colon26 purchased from Guangzhou Ginio Biological Technology Co., Ltd., and the culture medium used was RPMI1640 containing 10% fetal bovine serum. The mouse strain used for tumor-bearing was Balb/c purchased from Sino-British SIPPR/BK Lab Animal Co., Ltd. At the time of implanting, the Colon26 cells in logarithmic growth phase were collected and mixed to 10 million cells/ml. Each mouse was implanted subcutaneously with 100 μl of one million cells. When the tumor grew to about 100 cubic millimeters, animals were randomly divided into groups with 8 animals per group. Drug administration was started (D0).
Mode of administration: intragastric administration, twice a day.
Formulation prescription: 3% dimethylacetamide and 20% hydroxypropyl-β-cyclodextrin. • Administration period and tumor measurement: The administration period was 13 days. The tumor volume was measured, the mice were weighed, and the data were recorded, 3 times per week. The calculation formula of tumor volume (V) is: V=½a×b2 where a and b represent length and width, respectively. The calculation formula of T/C is: T/C (%)=100×ΔT/ΔC. Tumor inhibition rate (%)=1−T/C (%). • Experimental results: The antitumor effect of the compound of Example 15 in Colon26 tumor-bearing mouse model is shown in the following table.
Under the same experimental conditions, the dosage was adjusted. The anti-tumor effect of Example 15 and its optical isomers 18-(1) and 18-(2) in Colon26 tumor-bearing mouse model is shown in the following table: […]

[3] = target: T1, indoleamine 2,3-dioxygenase (IDO) in HeLa cells (Homo sapiens, UniProt P14902); assay: Cell model test for IDO activity inhibition (interferon γ induced HeLa cells); format: cell-based; settings: interferon γ 50 ng/mL, 24 hours, read-out: Cytological Test IC50
T1 construct: Interferon γ induced the expression of IDO in HeLa cells; host or cells: HeLa cells induced with interferon γ
T1 sequence (P14902 whole entry): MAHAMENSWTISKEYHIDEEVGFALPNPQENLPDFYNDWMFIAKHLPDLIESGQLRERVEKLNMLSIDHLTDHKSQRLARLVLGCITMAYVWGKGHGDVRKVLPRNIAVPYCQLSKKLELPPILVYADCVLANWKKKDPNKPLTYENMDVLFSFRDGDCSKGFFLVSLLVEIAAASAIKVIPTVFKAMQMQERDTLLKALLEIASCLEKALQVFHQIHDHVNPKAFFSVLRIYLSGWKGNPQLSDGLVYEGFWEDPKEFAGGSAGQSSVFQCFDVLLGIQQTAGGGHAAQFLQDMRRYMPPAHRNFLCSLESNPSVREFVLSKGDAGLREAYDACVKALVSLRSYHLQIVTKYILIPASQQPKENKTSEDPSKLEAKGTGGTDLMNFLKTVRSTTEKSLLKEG
Experimental: Interferon γ induced the expression of IDO in HeLa cells. This model was used to test the inhibitory activity of compounds on indoleamine 2,3-dioxygenase (IDO). The culture medium of HeLa cells (ATCC) was phenol red-free RPMI-1640 containing 100 μM L-tryptophan. The stock solution of the test compound was prepared to 10 mM with dimethyl sulfoxide, and diluted with dimethyl sulfoxide to the highest concentration of the test during the experiment, then diluted in three-fold gradient, and generally diluted to 8 to 10 concentration points. Duplicate wells were set for each concentration point. The final concentration of DMSO was 0.5%, and internal reference compound was included in each experiment.
The procedure of the experiment was as follows: 20,000 HeLa cells (ATCC) per well were added on a 96-well culture plate and incubated overnight. After 24 hours, interferon γ (final concentration of 50 ng/mL) and different concentrations of the test compound and the internal reference compound were added to the incubated cells. After 24 hours, 140 μL of the supernatant/well was transferred to a new 96-well plate, and 10 μL of 6.1 N trichloroacetic acid was added to each well. The plate was incubated for 30 minutes at 50° C. to hydrolyze N-formyl-kynurenine to kynurenine. The reaction mixture was centrifuged at 2500 rpm for 10 minutes to remove the precipitate, and the supernatant (100 μL) was transferred to another new 96-well plate. 100 μL of 2% (W/V) p-(dimethylamino)benzaldehyde (p-DMBA)/glacial acetic acid solution was added to each well. The absorbance at 490 nm was read on a BioTek Synergy H1 microplate reader […].
The original data of the absorbance at 490 nm read on a microplate reader were analyzed. The inhibition of IDO enzyme activity was calculated at different concentrations of the test compound. The half-inhibitory concentration IC50 value of the compound was obtained by non-linear fitting analysis of inhibition percentage data by GraphPad Prism software.

[4] = 25 mg/kg intragastric twice a day, D12

SMILES: CS(=O)(CCNc1nonc1/C(=N/O)Nc1ccc(F)c(Br)c1)=NS(=O)(=O)C1CC1 (stereo not shown) [Example 15, (Z)—N-(3-bromo-4-fluorophenyl)-4-((2-(N-(cyclopropylsulfonyl)-S-methylsulfonimidoyl)ethyl)amino)-N′-hydroxy-1,2,5-oxadiazole-3-carboximidamide]
- AUC(0-inf) [1]: 5180 ng·h/mL
- Cmax [1]: 1350 ng/mL
- Tmax [1]: 0.5 h
- half-life [1]: 3.54 h
- Tumor inhibition rate (%) D12 ([2]; 10 mg/kg, D12): 71.10%
- Average tumor volume (mm^3 ± SEM) D0 ([2]; 25 mg/kg intragastric twice a day, D0 (start of administration)): 95.5 ± 2.0 mm^3
- Average tumor volume (mm^3 ± SEM) D12 [2, 4]: 212.7 ± 28.9 mm^3
- T/C (%) D12 [2, 4]: 5.4%
- Tumor inhibition rate (%) D12 ([2]; 25 mg/kg intragastric twice a day, D12, 25 mg/kg): 94.6%
- IC50 [3]: 10 nM
